Laboratory results reported in paper PMC12999171 (eLife, 2026).

How the values were obtained:
[1] = target: iGABASnFR2n (Pseudomonas fluorescens, UniProt A0A1B3D787, F126L/F129H/N285A/S124A); test: biochemical; assay type: binding
From the text: (§1) The fluorescence data was fitted to the Hill function in GraphPad Prism to determine affinity values.

[2] = target: iGABASnFR1 (Pseudomonas fluorescens, UniProt A0A1B3D787, F126L/N285A); test: biochemical; assay type: binding
iGABASnFR1, sequence (A0A1B3D787 27-341, stated change not applied): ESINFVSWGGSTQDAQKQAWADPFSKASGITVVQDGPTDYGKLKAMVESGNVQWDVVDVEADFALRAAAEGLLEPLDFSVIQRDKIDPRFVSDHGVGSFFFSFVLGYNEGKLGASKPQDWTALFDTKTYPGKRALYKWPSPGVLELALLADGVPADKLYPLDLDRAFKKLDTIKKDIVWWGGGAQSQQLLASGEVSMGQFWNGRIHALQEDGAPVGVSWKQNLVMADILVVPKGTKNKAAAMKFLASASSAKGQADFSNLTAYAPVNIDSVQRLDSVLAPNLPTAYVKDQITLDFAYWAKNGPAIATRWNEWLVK
iGABASnFR1, sequence (P42212 with tags, fused parts or gaps S30R/Y39N/F64L/F99S/N105T/Y145W partner): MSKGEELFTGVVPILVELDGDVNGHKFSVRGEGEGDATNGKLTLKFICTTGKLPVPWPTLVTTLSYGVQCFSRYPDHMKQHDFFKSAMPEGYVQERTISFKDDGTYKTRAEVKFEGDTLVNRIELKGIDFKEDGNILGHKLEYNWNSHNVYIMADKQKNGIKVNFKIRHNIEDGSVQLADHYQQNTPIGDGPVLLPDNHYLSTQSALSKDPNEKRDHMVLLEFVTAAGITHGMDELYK
From the text: as §1

iGABASnFR2n, sequence (A0A1B3D787 27-341, stated change not applied): as the sequence (A0A1B3D787 27-341, stated change not applied) above
iGABASnFR2n, sequence (P42212 whole entry Y145W/R168P partner): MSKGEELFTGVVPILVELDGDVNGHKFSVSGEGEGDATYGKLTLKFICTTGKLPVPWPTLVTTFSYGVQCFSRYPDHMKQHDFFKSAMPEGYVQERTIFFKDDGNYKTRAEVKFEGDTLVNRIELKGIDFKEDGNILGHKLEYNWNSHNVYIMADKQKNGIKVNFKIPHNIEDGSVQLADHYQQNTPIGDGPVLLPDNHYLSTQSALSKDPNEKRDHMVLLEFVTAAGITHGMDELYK

Compound	EC50 [1] [µM]	EC50 [2] [µM]
NCCc1c[nH]cn1 [histamine]	9000	–
N[C@@H](Cc1c[nH]c2ccccc12)C(=O)O [tryptophan]	0.396	–
C[C@@H](O)[C@H](N)C(=O)O [threonine]	9000	19.9
Cc1ccsc1C(=CCCN1CCC[C@@H](C(=O)O)C1)c1sccc1C [tiagabine, reference compound]	2230	–
NCC(CC(=O)O)c1ccc(Cl)cc1 (centres unmarked) [baclofen, reference compound]	6.3	7380
NC(=O)C[C@H](N)C(=O)O [asparagine]	5500	8490
N[C@@H](CC(=O)O)C(=O)O [aspartate]	0.526	2.39
CSCC[C@H](N)C(=O)O [methionine]	9000	0.419
NCCCC[C@H](N)C(=O)O [lysine]	741	77.5
O=C(O)[C@@H]1CCCN1 [proline]	2490	–
CC(C)[C@H](N)C(=O)O [valine]	1.47	1.34
C[C@H](N)C(=O)O [alanine]	582	1710
NCc1cc(=O)[nH]o1 [muscimol, reference compound]	2.62	5.81
CC[C@H](C)[C@H](N)C(=O)O [isoleucine]	111	2.45
N[C@@H](CO)C(=O)O [serine]	5520	50.9
C=CC(N)CCC(=O)O (centres unmarked) [vigabatrin, reference compound]	–	5430
N=C(N)NCCC[C@H](N)C(=O)O [arginine]	3.35	59
CN1CCc2cc3c(cc2[C@H]1[C@@H]1OC(=O)c2c1ccc1c2OCO1)OCO3 [bicuculline, reference compound]	9000	–
N[C@@H](Cc1ccccc1)C(=O)O [phenylalanine]	1150	3.71
